Series [1] concerns the target T1, Angiopoietin-1 receptor (Homo sapiens, UniProt Q02763). In words: Inhibition of human Tie2 by HTRF method. For orientation: TR-FRET usually uses a lanthanide donor and a delayed reading to cut background.
Target sequence in this assay (Q02763 whole entry): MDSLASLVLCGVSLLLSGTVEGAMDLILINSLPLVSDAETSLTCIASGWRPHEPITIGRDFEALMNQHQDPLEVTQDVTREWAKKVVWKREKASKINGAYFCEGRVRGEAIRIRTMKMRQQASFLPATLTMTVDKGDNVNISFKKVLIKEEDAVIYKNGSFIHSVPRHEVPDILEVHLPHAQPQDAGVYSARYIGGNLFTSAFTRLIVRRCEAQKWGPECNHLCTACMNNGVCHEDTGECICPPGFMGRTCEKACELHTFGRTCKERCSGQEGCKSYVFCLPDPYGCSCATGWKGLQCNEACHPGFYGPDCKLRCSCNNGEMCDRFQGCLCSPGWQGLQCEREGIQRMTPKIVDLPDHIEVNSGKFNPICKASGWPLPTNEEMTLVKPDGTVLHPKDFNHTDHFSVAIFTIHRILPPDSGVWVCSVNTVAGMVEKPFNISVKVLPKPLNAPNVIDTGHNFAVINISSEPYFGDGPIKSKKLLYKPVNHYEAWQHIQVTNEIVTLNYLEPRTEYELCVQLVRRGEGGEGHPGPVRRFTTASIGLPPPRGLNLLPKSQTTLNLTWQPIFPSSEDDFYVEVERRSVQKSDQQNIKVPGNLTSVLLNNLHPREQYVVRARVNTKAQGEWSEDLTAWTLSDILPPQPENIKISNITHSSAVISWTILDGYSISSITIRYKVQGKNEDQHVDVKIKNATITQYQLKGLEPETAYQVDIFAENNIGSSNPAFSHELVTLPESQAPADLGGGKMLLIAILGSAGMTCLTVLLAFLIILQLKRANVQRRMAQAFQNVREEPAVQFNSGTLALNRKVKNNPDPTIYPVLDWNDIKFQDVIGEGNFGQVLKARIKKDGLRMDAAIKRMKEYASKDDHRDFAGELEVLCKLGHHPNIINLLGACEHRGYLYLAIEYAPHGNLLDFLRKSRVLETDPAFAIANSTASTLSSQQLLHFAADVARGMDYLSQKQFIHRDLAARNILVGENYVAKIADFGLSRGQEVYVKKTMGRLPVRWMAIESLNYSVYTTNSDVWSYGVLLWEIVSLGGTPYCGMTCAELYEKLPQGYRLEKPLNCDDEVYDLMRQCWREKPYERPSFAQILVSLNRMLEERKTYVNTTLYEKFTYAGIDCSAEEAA
The target of series [2] is Vascular endothelial growth factor receptor 2 (Homo sapiens, UniProt P35968). The series can be described thus: Inhibition of human VEGFR2 by HTRF method.
A further series relates to HUVEC. The series can be described thus: Growth inhibition of VEGF-stimulated human HUVEC cells.
The target of series [3] is T1, Angiopoietin-1 receptor. The series can be described thus: Inhibition of c-fms/Tie2 chimeric receptor transfected in 3T3 cell assessed as autophosphorylation activity. Format: cell-based.
The test system of the next series is HFF. The series can be described thus: Cytotoxicity against human HFF cells after 3 days. Particulars: 72 h.
Series [4] concerns HT-29. The series can be described thus: Cytotoxicity against human HT29 cells after 3 days. Particulars: HT-29, 72 h.
Series [5] is described as follows: Cmax in CD1 mouse at 10.7 mg/kg, po. Also noted: dose 10.7 mg/kg, route oral. Particulars: in vivo. Format: ADME, organism-based.
A short description of series [6]: Tmax in CD1 mouse at 10.7 mg/kg, po. Format: ADME, organism-based. On the set-up: dose 10.7 mg/kg, route oral. The note with it: in vivo.
Series [7] in a line: AUC (0 to t) in CD1 mouse at 10.7 mg/kg, po. Format: ADME, organism-based. On the set-up: dose 10.7 mg/kg, route oral. The note with it: plasma.
For series [8], the system named is HT-29. The series can be described thus: Antiangiogenic activity against human HT29 cells xenografted in nude CD1 mouse. Format: functional. Background: A xenograft is tissue or cells of one species grown in another, often human tumour cells in immunodeficient mice.
Series [9] relates to HT-29. In words: Inhibition of tumor growth in human HT29 cells xenografted in orally dosed nude CD1 mouse. It counts as functional, organism-based.
For series [10], the system named is HT-29. In words: Antiangiogenic activity against human HT29 cells xenografted in nude CD1 mouse assessed as decrease in blood vessel density at 3 mg/kg, po. On the set-up: scale not given: the % may be the effect or the level left. Format: functional.
The subject of series [11] is HT-29. The series can be described thus: Antiangiogenic activity against human HT29 cells xenografted in nude CD1 mouse assessed as decrease in blood vessel density at 10 mg/kg, po. Format: functional. Also noted: scale not given: the % may be the effect or the level left.
Series [12] deals with HT-29. The series can be described thus: Antiangiogenic activity against human HT29 cells xenografted in nude CD1 mouse assessed as decrease in blood vessel density at 30 mg/kg, po. It counts as functional. On the set-up: scale not given: the % may be the effect or the level left.
For series [13], the target named is RAC-gamma serine/threonine-protein kinase (Homo sapiens, UniProt Q9Y243). The series can be described thus: Inhibition of human Akt3.
Series [14] has as its target Cyclin-dependent kinase 2 (Homo sapiens, UniProt P24941). The series can be described thus: Inhibition of human CDK2.
For series [15], the target named is Epidermal growth factor receptor (Homo sapiens, UniProt P00533). In words: Inhibition of human EGFR.
The target of series [16] is Glycogen synthase kinase-3 (Homo sapiens, UniProt P49840+P49841). In words: Inhibition of human GSK3. It counts as protein assay.
The target of series [17] is Proto-oncogene tyrosine-protein kinase Src (Homo sapiens, UniProt P12931). The series can be described thus: Inhibition of human SRC.
The target in series [18] is Macrophage colony-stimulating factor 1 receptor (Homo sapiens, UniProt P07333). The series can be described thus: Inhibition of human cFMS.
Series [19] deals with Platelet-derived growth factor receptor (Homo sapiens, UniProt P09619+P16234). The series can be described thus: Inhibition of human PDGFR. Format: protein-complex assay.
For series [20], the target named is Vascular endothelial growth factor receptor 1 (Homo sapiens, UniProt P17948). The series can be described thus: Inhibition of human VEGFR1.
Series [21] deals with Vascular endothelial growth factor receptor 3 (Homo sapiens, UniProt P35916). The series can be described thus: Inhibition of human VGFR3.

Molecules are shown by their SMILES. Calls of active or inactive are those of the source. The calls are words filed in the database; no cut-off is given here.

Sequence of Vascular endothelial growth factor receptor 2 (P35968 whole entry, looked up): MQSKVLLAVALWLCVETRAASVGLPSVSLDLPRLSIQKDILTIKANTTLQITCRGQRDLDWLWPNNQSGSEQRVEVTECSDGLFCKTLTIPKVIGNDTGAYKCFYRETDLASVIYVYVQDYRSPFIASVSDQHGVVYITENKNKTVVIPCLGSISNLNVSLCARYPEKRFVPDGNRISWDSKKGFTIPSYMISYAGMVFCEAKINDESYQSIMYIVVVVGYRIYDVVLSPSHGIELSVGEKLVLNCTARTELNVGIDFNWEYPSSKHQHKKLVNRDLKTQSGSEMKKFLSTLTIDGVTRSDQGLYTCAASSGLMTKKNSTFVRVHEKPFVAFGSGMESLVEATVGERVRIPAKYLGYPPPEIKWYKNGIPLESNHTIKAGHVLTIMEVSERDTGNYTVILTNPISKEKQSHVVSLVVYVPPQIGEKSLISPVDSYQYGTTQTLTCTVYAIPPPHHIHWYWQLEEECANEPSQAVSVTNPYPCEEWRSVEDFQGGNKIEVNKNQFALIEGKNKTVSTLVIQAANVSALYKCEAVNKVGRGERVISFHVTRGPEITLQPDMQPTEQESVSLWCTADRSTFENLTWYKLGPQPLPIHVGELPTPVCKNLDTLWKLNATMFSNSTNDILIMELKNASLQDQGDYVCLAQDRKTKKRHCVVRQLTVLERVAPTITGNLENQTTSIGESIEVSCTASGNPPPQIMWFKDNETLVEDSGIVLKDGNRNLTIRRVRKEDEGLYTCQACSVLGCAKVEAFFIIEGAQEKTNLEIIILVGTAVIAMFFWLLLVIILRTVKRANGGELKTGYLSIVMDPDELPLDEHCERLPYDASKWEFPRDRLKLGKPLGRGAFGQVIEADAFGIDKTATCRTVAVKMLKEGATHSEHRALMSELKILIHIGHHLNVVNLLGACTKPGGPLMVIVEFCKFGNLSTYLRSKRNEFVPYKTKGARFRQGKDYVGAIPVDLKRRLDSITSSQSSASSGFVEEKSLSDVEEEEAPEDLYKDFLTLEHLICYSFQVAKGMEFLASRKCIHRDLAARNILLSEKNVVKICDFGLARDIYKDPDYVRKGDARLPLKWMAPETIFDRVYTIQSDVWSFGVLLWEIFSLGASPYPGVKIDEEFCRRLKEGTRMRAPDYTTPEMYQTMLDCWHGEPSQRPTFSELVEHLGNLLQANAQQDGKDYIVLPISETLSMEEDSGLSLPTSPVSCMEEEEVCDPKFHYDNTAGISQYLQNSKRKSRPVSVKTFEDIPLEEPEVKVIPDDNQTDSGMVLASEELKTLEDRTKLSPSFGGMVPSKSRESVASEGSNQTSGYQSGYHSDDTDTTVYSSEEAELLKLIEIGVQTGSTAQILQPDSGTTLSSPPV
Sequence of Macrophage colony-stimulating factor 1 receptor (P07333 whole entry): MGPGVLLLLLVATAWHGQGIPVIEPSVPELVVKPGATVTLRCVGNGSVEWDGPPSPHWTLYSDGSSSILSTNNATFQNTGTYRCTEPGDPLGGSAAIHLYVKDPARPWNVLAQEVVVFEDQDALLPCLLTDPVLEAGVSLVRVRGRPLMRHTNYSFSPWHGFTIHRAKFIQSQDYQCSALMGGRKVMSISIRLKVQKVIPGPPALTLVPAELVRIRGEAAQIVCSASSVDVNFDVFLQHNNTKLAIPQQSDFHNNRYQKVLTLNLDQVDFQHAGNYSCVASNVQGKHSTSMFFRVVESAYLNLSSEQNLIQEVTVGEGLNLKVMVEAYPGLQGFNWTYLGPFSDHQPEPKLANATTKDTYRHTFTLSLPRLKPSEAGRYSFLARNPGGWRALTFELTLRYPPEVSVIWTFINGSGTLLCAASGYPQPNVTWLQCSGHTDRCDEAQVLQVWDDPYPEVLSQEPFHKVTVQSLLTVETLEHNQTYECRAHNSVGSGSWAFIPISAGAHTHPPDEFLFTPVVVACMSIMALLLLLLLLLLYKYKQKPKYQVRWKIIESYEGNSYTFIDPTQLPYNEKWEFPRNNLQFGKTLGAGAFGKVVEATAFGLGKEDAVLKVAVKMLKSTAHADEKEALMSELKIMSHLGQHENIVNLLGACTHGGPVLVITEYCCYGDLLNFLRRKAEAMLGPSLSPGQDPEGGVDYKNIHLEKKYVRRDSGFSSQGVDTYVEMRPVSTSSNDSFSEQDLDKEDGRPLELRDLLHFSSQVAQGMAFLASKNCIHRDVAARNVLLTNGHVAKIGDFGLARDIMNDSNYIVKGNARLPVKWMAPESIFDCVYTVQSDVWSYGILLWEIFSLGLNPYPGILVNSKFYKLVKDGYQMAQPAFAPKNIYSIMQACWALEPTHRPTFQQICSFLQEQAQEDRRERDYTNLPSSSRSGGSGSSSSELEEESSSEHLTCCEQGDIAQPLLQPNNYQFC
Sequence of Proto-oncogene tyrosine-protein kinase Src (P12931 2-536 limits assumed): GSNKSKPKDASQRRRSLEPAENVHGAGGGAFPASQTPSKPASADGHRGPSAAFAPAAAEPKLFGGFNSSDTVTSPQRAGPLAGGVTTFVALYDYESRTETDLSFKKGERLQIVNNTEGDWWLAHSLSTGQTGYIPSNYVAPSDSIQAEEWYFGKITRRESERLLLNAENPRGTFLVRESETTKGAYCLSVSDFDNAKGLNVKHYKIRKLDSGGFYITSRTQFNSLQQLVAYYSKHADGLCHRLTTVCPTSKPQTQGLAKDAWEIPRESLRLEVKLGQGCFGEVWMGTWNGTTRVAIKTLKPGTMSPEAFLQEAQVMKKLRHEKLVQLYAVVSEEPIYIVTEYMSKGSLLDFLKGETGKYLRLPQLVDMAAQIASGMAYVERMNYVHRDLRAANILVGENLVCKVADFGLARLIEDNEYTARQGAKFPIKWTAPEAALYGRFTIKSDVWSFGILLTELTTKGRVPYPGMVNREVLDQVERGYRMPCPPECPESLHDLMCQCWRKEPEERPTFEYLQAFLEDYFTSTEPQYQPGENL
Sequence of RAC-gamma serine/threonine-protein kinase (Q9Y243 whole entry): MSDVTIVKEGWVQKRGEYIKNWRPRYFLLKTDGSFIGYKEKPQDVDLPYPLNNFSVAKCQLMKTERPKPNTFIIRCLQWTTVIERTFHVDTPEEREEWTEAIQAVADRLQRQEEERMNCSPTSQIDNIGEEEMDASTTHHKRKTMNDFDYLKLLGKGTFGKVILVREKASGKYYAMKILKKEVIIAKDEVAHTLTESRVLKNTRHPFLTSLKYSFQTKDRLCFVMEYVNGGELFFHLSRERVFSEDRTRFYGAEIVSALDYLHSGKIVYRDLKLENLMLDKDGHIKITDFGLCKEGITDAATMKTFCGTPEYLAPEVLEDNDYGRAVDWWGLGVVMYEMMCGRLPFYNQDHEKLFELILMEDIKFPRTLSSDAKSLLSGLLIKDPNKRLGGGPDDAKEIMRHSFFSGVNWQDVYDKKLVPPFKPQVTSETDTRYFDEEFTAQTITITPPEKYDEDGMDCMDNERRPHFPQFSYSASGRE

Take `Nc1ncnc2occ(-c3ccc(NC(=O)Nc4cccc5ccccc45)cc3)c12`: the IC50 – broadly, the concentration that gives 50% inhibition – on Angiopoietin-1 receptor [1] was 0.182 µM; in series [2], 0.447 µM.
On the same counts, the results for `Nc1ncnc2occ(-c3ccc(NC(=O)Nc4cccc(Oc5ccccc5)c4)cc3)c12` are 0.407 µM and 1.74 µM.
For `COc1ccc(F)c(NC(=O)Nc2ccc(-c3coc4ncnc(N)c34)cc2)c1`, the half-maximal inhibitory concentration (IC50) is 0.224 µM on Angiopoietin-1 receptor [1] and 0.331 µM in series [2].
The corresponding values for `Nc1ncnc2occ(-c3ccc(NC(=O)Nc4ccc5ccccc5c4)cc3)c12` are 0.0813 µM and 0.024 µM.
On the same counts, the results for `Nc1ncnc2occ(-c3ccc(NC(=O)Nc4cc(C(F)(F)F)ccc4Cl)cc3)c12` are 0.204 µM and 0.186 µM.
With `Nc1ncnc2occ(-c3ccc(NC(=O)Nc4cc(C(F)(F)F)ccc4F)cc3)c12` [GW770249X], the IC50 against Angiopoietin-1 receptor [1] was 0.0135 µM; in series [2], 0.00776 µM; in the series with HUVEC, 0.0026 µM; at Angiopoietin-1 receptor [3], 0.0183 µM; in the series on HFF, 2.51 µM; in the series with HT-29 [4], 5.08 µM. In addition, the concentration for half-maximal inhibition (IC50) is 17.4 µM in [13]; 17.8 µM in series [14]; 10 µM in series [15]; 0.537 µM in series [17]; 0.0389 µM in series [18]; 0.0275 µM in series [19]. In addition, the IC50 was 0.00851 µM in series [20] and 0.00759 µM in [21]. The highest level in [5] (Cmax) was 2720 ng/mL. Moreover, the Tmax (usually the time at which the peak concentration occurs) in [6] was 2 h. Moreover, the AUC(0-t) (as a rule, the area under the concentration-time curve up to a stated or last time point) in series [7] was 20000 ng·h/mL. The outcome in the series with HT-29 [8] was Active. Moreover, the Activity entry is “Dose-dependent effect” with HT-29 [9], 24.3% with HT-29 [10], 35.6% with HT-29 [11] and 62.9% in the series on HT-29 [12]. Also, the “Log IC50” value in series [16] is on record as -5.66.
As for `Nc1ncnc2occ(-c3ccc(NC(=O)Nc4cc(C(F)(F)F)cc(C(F)(F)F)c4)cc3)c12` [GW795486X], it took 0.38 µM to reach half-maximal inhibition on Angiopoietin-1 receptor [1] (IC50).
In the case of `Nc1ncnc2occ(-c3ccc(NC(=O)Nc4cccc(C(F)(F)F)c4)cc3)c12` [GW795493X], the IC50 is 0.0102 µM against Angiopoietin-1 receptor [1] and 0.00708 µM in [2].

The record behind these values is ChEMBL document CHEMBL1139135, “Orally active 4-amino-5-diarylurea-furo[2,3-d]pyrimidine derivatives as anti-angiogenic agent inhibiting VEGFR2 and Tie-2” (Bioorg Med Chem Lett, 2007).
